Data taken from ChEMBL document CHEMBL1201862, “PubChem BioAssay data set” (2004).
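Compound exposure: 48 hours, 5 concentrations, 96-well plates. GI50: concentration for 50% inhibition of growth.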 Activity calls are given as the source filed them. Rule as the data show it: active = GI50 up to about 1.1 µM and inactive = higher.

Tests used:
Test in all cases: NCI tumour cell line growth inhibition, 48 h
[1] = test system: COLO 205
[2] = test system: EKVX
[3] = test system: HCT-116
[4] = test system: HCT-15
[5] = test system: HOP-92
[6] = test system: HT-29
[7] = test system: KM12
[8] = test system: M14
[9] = test system: OVCAR-5
[10] = test system: OVCAR-8
[11] = test system: RPMI-8226
[12] = test system: RXF 393
[13] = test system: SN12C
[14] = test system: TK-10
[15] = test system: U-251
[16] = test system: UO-31
[17] = test system: SF-295
[18] = test system: DU-145
[19] = test system: PC-3

Compound | GI50 [1] | GI50 [2] | GI50 [3] | GI50 [4] | GI50 [5] | GI50 [6] | GI50 [7] | GI50 [8] | GI50 [9] | GI50 [10] | GI50 [11] | GI50 [12] | GI50 [13] | GI50 [14] | GI50 [15] | GI50 [16] | GI50 [17] | GI50 [18] | GI50 [19]
OCCN1CCN(CCO)Cc2ccccc2OCCOc2ccccc2C1 | > 100 µM (inactive) | > 100 µM (inactive) | 51.6 µM (inactive) | > 100 µM | > 100 µM (inactive) | 96.8 µM (inactive) | > 100 µM (inactive) | > 100 µM (inactive) | > 100 µM (inactive) | > 100 µM (inactive) | > 100 µM (inactive) | > 100 µM (inactive) | > 100 µM (inactive) | > 100 µM (inactive) | > 100 µM (inactive) | > 100 µM (inactive) | – | – | –
NC1C(O)C(O)C(CO)OC1n1cc(F)c(=O)[nH]c1=O (stereo unspecified) | > 100 µM (inactive) | – | > 100 µM (inactive) | > 100 µM | > 100 µM (inactive) | > 100 µM (inactive) | > 100 µM (inactive) | – | > 100 µM (inactive) | – | > 100 µM (inactive) | > 100 µM (inactive) | > 100 µM (inactive) | > 100 µM (inactive) | > 100 µM (inactive) | – | > 100 µM (inactive) | – | –
CCCCCC(/C=C/c1ncccc1OCCCCCC(=O)O)=N\NC1=NCCN1 | 53.8 µM (inactive) | > 100 µM (inactive) | 43.4 µM (inactive) | > 100 µM | 91 µM (inactive) | > 100 µM (inactive) | 54.3 µM (inactive) | > 100 µM (inactive) | > 100 µM (inactive) | > 100 µM (inactive) | 29.4 µM (inactive) | > 100 µM (inactive) | 94.4 µM (inactive) | > 100 µM (inactive) | – | > 100 µM (inactive) | > 100 µM (inactive) | – | –
COC(=O)C1Cc2c([nH]c3ccccc23)C=N1 (stereo unspecified) | > 100 µM (inactive) | > 100 µM (inactive) | > 100 µM (inactive) | > 100 µM | > 100 µM (inactive) | > 100 µM (inactive) | 94.2 µM (inactive) | > 100 µM (inactive) | > 100 µM (inactive) | > 100 µM (inactive) | > 100 µM (inactive) | > 100 µM (inactive) | > 100 µM (inactive) | 59.3 µM (inactive) | > 100 µM (inactive) | > 100 µM (inactive) | > 100 µM (inactive) | – | –
O=C(CC1Sc2ccccc2NC1=O)Nc1ccc(Cl)cc1 (stereo unspecified) | > 100 µM (inactive) | > 100 µM (inactive) | 42.9 µM (inactive) | 75.9 µM | 19.6 µM (inactive) | > 100 µM (inactive) | > 100 µM (inactive) | 92.5 µM (inactive) | > 100 µM (inactive) | 37.9 µM (inactive) | > 100 µM (inactive) | 31.1 µM (inactive) | > 100 µM (inactive) | > 100 µM (inactive) | > 100 µM (inactive) | > 100 µM (inactive) | > 100 µM (inactive) | – | –
CN1C2CCC1/C(=C/c1cccc3c1OCO3)C(=O)/C2=C\c1cccc2c1OCO2 | > 100 µM (inactive) | > 100 µM (inactive) | > 100 µM (inactive) | > 100 µM | 22.8 µM (inactive) | > 100 µM (inactive) | > 100 µM (inactive) | 59 µM (inactive) | > 100 µM (inactive) | > 100 µM (inactive) | > 100 µM (inactive) | 11.3 µM (inactive) | > 100 µM (inactive) | 21.3 µM (inactive) | 24.5 µM (inactive) | > 100 µM (inactive) | 22.1 µM (inactive) | – | –
C[C@]12CC[C@H](O)CC1=CC[C@@H]1[C@@H]2CC[C@]2(C)C(=O)CC[C@@H]12 [PRASTERONE] | > 100 µM (inactive) | 75.2 µM (inactive) | > 100 µM (inactive) | > 100 µM | – | > 100 µM (inactive) | > 100 µM (inactive) | > 100 µM (inactive) | > 100 µM (inactive) | > 100 µM (inactive) | > 100 µM (inactive) | > 100 µM (inactive) | > 100 µM (inactive) | > 100 µM (inactive) | > 100 µM (inactive) | > 100 µM (inactive) | > 100 µM (inactive) | > 100 µM (inactive) | > 100 µM (inactive)
N#CC1C(=O)C(=O)N(c2ccccc2)C1=O (stereo unspecified) | > 100 µM (inactive) | > 100 µM (inactive) | > 100 µM (inactive) | > 100 µM | > 100 µM (inactive) | > 100 µM (inactive) | > 100 µM (inactive) | > 100 µM (inactive) | > 100 µM (inactive) | > 100 µM (inactive) | > 100 µM (inactive) | > 100 µM (inactive) | > 100 µM (inactive) | > 100 µM (inactive) | > 100 µM (inactive) | > 100 µM (inactive) | > 100 µM (inactive) | – | –
